Laboratory results as given in US9260425B2 (Genetech, Inc., priority 2011, dated 2016).

molecular target: Pim-1 (Homo sapiens (Human), UniProt P11309); test: Pim kinase binding activity assay (Example 901), PIM-1 enzyme, Caliper microfluidic peptide phosphorylation; format: biochemical; details: 20 pM PIM-1, 10 μM ATP, 1 μM FAM-peptide, 90 minutes at room temperature
Procedure, shortened: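 PIM-1 at 20 pM phosphorylated 1 μM FAM-labelled Pim peptide with 10 μM ATP in HEPES pH 7.2, MgCl2, Tween 20 and DTT for 90 min at room temperature. EDTA stopped the reaction, and product and substrate were resolved by microfluidic electrophoresis (ex 488/em 530 nm). Ki was derived from substrate conversion.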

Sequence of Pim-1 (P11309 whole entry): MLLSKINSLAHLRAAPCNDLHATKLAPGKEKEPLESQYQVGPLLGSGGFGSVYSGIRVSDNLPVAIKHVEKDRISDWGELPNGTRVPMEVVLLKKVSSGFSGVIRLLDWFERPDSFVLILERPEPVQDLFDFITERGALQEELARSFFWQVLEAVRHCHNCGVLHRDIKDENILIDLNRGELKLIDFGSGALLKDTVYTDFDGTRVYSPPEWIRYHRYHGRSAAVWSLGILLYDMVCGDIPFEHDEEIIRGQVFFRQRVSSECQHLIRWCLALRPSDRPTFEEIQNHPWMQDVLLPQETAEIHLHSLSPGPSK

Ki	SMILES
0.13 nM	NCCC1CCN(c2cccc(-c3n[nH]c4cnc(-c5cccnc5)cc34)n2)C1 (stereo not drawn) [Example 333, 2-(1-(6-(5-(pyridin-3-yl)-1H-pyrazolo[3,4-c]pyridin-3-yl)pyridin-2-yl)pyrrolidin-3-yl)ethanamine]
1.57 nM	N[C@H]1CCN(c2ccc(-c3n[nH]c4cnc(-c5cccnc5)cc34)nc2)C1=O [Example 334, (S)-3-amino-1-(6-(5-(pyridin-3-yl)-1H-pyrazolo[3,4-c]pyridin-3-yl)pyridin-3-yl)pyrrolidin-2-one]
12.6 nM	O=C1CN(c2cc3c(-c4cccc(N5CCNCC5)n4)n[nH]c3cn2)CCN1 [Example 335, 4-(3-(6-(piperazin-1-yl)pyridin-2-yl)-1H-pyrazolo[3,4-c]pyridin-5-yl)piperazin-2-one]
12.7 nM	NC1CCN(C(=O)c2cccc(-c3n[nH]c4cnc(-c5cccnc5)cc34)n2)CC1 [Example 336, (4-aminopiperidin-1-yl)(6-(5-(pyridin-3-yl)-1H-pyrazolo[3,4-c]pyridin-3-yl)pyridin-2-yl)methanone]
30.5 nM	O=C(NC1CCNCC1)c1cccc(-c2n[nH]c3cnc(-c4cccnc4)cc23)n1 [Example 337, N-(piperidin-4-yl)-6-(5-(pyridin-3-yl)-1H-pyrazolo[3,4-c]pyridin-3-yl)picolinamide]
24.5 nM	c1ccc(-c2n[nH]c3cnc(-c4cncs4)cc23)nc1 [Example 338, 5-(3-(pyridin-2-yl)-1H-pyrazolo[3,4-c]pyridin-5-yl)thiazole]
5500 nM	CN1CCN(c2cc3c(-c4ccccc4F)n[nH]c3cn2)CC1=O [Example 339, 4-(3-(2-fluorophenyl)-1H-pyrazolo[3,4-c]pyridin-5-yl)-1-methylpiperazin-2-one]
0.044 nM	N[C@H]1CCC[C@@H](Nc2cccc(-c3n[nH]c4cnc(-c5cccnc5)cc34)n2)C1 [Example 340, (1R,3S)-N1-(6-(5-(pyridin-3-yl)-1H-pyrazolo[3,4-c]pyridin-3-yl)pyridin-2-yl)cyclohexane-1,3-diamine]
0.077 nM	N[C@@H]1CCC[C@H](Nc2cccc(-c3n[nH]c4cnc(-c5cccnc5)cc34)n2)C1 [Example 341, (1S,3R)-N1-(6-(5-(pyridin-3-yl)-1H-pyrazolo[3,4-c]pyridin-3-yl)pyridin-2-yl)cyclohexane-1,3-diamine]
0.01 nM	C#Cc1ccc(-c2n[nH]c3cnc(-c4cccnc4)cc23)nc1N1CCC[C@H](N)C1 [Example 342, (S)-1-(3-ethynyl-6-(5-(pyridin-3-yl)-1H-pyrazolo[3,4-c]pyridin-3-yl)pyridin-2-yl)piperidin-3-amine]
0.045 nM	C[C@]1(N)CCCN(c2cccc(-c3n[nH]c4cnc(-c5cccnc5)cc34)n2)C1 [Example 343, (S)-3-methyl-1-(6-(5-(pyridin-3-yl)-1H-pyrazolo[3,4-c]pyridin-3-yl)pyridin-2-yl)piperidin-3-amine]
3.9 nM	NC(=O)[C@@H]1CCCN1c1ccc(-c2n[nH]c3cnc(-c4cccnc4)cc23)nc1 [Example 344, (S)-1-(6-(5-(pyridin-3-yl)-1H-pyrazolo[3,4-c]pyridin-3-yl)pyridin-3-yl)pyrrolidine-2-carboxamide]
13.7 nM	N[C@H]1CCCN(c2cccc(-c3n[nH]c4cnc(N5CCNC(=O)C5)cc34)n2)C1 [Example 345, (S)-4-(3-(6-(3-aminopiperidin-1-yl)pyridin-2-yl)-1H-pyrazolo[3,4-c]pyridin-5-yl)piperazin-2-one]
219 nM	O=C1CNCCN1c1cc2c(-c3cccc(N4CCNCC4)n3)n[nH]c2cn1 [Example 346, 1-(3-(6-(piperazin-1-yl)pyridin-2-yl)-1H-pyrazolo[3,4-c]pyridin-5-yl)piperazin-2-one]
0.11 nM	C[C@@]1(N)CCCN(c2cccc(-c3n[nH]c4cnc(-c5cccnc5)cc34)n2)C1 [Example 347, (R)-3-methyl-1-(6-(5-(pyridin-3-yl)-1H-pyrazolo[3,4-c]pyridin-3-yl)pyridin-2-yl)piperidin-3-amine]
26.8 nM	Fc1ccccc1-c1n[nH]c2cnc(-c3cncs3)cc12 [Example 348, 5-(3-(2-fluorophenyl)-1H-pyrazolo[3,4-c]pyridin-5-yl)thiazole]
4800 nM	CN1CCN(c2cc3c(-c4ccccn4)n[nH]c3cn2)CC1=O [Example 351, 1-methyl-4-(3-(pyridin-2-yl)-1H-pyrazolo[3,4-c]pyridin-5-yl)piperazin-2-one]
0.025 nM	N[C@@H]1CCC[C@@H](Nc2cccc(-c3n[nH]c4cnc(-c5cccnc5)cc34)n2)C1 [Example 352, (1R,3R)-N1-(6-(5-(pyridin-3-yl)-1H-pyrazolo[3,4-c]pyridin-3-yl)pyridin-2-yl)cyclohexane-1,3-diamine]
0.397 nM	N[C@H]1CCC[C@H](Nc2cccc(-c3n[nH]c4cnc(-c5cccnc5)cc34)n2)C1 [Example 353, (1S,3S)-N1-(6-(5-(pyridin-3-yl)-1H-pyrazolo[3,4-c]pyridin-3-yl)pyridin-2-yl)cyclohexane-1,3-diamine]

Ki	SMILES
809 nM	CN1C(=O)CN(c2cc3c(-c4ccccc4)n[nH]c3cn2)C1=O [Example 355, 3-methyl-1-(3-phenyl-1H-pyrazolo[3,4-c]pyridin-5-yl)imidazolidine-2,4-dione]
1.22 nM	c1cc(-c2n[nH]c3cnc(-c4cncs4)cc23)nc(N2CCCCC2)c1 [Example 358, 5-(3-(6-(piperidin-1-yl)pyridin-2-yl)-1H-pyrazolo[3,4-c]pyridin-5-yl)thiazole]
0.074 nM	c1cc(-c2n[nH]c3cnc(-c4cncs4)cc23)nc(N2CCNCC2)c1 [Example 359, 5-(3-(6-(piperazin-1-yl)pyridin-2-yl)-1H-pyrazolo[3,4-c]pyridin-5-yl)thiazole]
0.366 nM	Cn1cc(-c2cc3c(-c4ccnc(N5CCCCC5)n4)n[nH]c3cn2)cn1 [Example 360, 5-(1-methyl-1H-pyrazol-4-yl)-3-(2-(piperidin-1-y1)pyrimidin-4-yl)-1H-pyrazolo[3,4-c]pyridine]
0.079 nM	CCCCc1ccc(-c2n[nH]c3cnc(-c4cccnc4)cc23)nc1N1CCC[C@H](N)C1 [Example 362, (S)-1-(3-butyl-6-(5-(pyridin-3-yl)-1H-pyrazolo[3,4-c]pyridin-3-yl)pyridin-2-yl)piperidin-3-amine]
2.41 nM	c1cc(-c2n[nH]c3cnc(-n4ccnc4)cc23)nc(N2CCCCC2)c1 [Example 363, 5-(1H-imidazol-1-yl)-3-(6-(piperidin-1-yl)pyridin-2-yl)-1H-pyrazolo[3,4-c]pyridine]
0.052 nM	Cn1cc(-c2cc3c(-c4ccnc(N5CCC[C@@H](N)C5)n4)n[nH]c3cn2)cn1 [Example 364, (R)-1-(4-(5-(1-methyl-1H-pyrazol-4-yl)-1H-pyrazolo[3,4-c]pyridin-3-yl)pyrimidin-2-yl)piperidin-3-amine]
0.0941 nM	Cn1cc(-c2cc3c(-c4ccnc(N5CCC[C@H](N)C5)n4)n[nH]c3cn2)cn1 [Example 365, (S)-1-(4-(5-(1-methyl-1H-pyrazol-4-yl)-1H-pyrazolo[3,4-c]pyridin-3-yl)pyrimidin-2-yl)piperidin-3-amine]
0.217 nM	Cc1ccc(-c2cc3c(-c4cccc(N5CCNCC5)n4)n[nH]c3cn2)cn1 [Example 367]
1.82 nM	c1cc(-c2n[nH]c3cnc(-n4ccnc4)cc23)nc(N2CCNCC2)c1 [Example 368, 5-(1H-imidazol-1-yl)-3-(6-(piperazin-1-yl)pyridin-2-yl)-1H-pyrazolo[3,4-c]pyridine]
1.13 nM	N[C@@H]1CCCN(c2cccc(-c3n[nH]c4cnc(-n5ccnc5)cc34)n2)C1 [Example 369, (R)-1-(6-(5-(1H-imidazol-1-yl)-1H-pyrazolo[3,4-c]pyridin-3-yl)pyridin-2-yl)piperidin-3-amine]
180 nM	N[C@@H]1CCCN(c2cccc(-c3n[nH]c4cnc(N5CCOC5=O)cc34)n2)C1 [Example 370, (R)-3-(3-(6-(3-aminopiperidin-1-yl)pyridin-2-yl)-1H-pyrazolo[3,4-c]pyridin-5-yl)oxazolidin-2-one]
31.1 nM	CN1C(=O)CN(c2cc3c(-c4cccc(N5CCNCC5)n4)n[nH]c3cn2)C1=O [Example 371, 3-methyl-1-(3-(6-(piperazin-1-yl)pyridin-2-yl)-1H-pyrazolo[3,4-c]pyridin-5-yl)imidazolidine-2,4-dione]
0.268 nM	CCn1cc(-c2cc3c(-c4cccc(N5CCN(C)CC5)n4)n[nH]c3cn2)cn1 [Example 372, 5-(1-ethyl-1H-pyrazol-4-yl)-3-(6-(4-methylpiperazin-1-yl)pyridin-2-yl)-1H-pyrazolo[3,4-c]pyridine]
483 nM	O=C1OCCN1c1cc2c(-c3cccc(N4CCCCC4)n3)n[nH]c2cn1 [Example 373, 3-(3-(6-(piperidin-1-yl)pyridin-2-yl)-1H-pyrazolo[3,4-c]pyridin-5-yl)oxazolidin-2-one]
85 nM	N[C@H]1CCCN(c2cccc(-c3n[nH]c4cnc(N5CCOC5=O)cc34)n2)C1 [Example 374, (S)-3-(3-(6-(3-aminopiperidin-1-yl)pyridin-2-yl)-1H-pyrazolo[3,4-c]pyridin-5-yl)oxazolidin-2-one]
0.039 nM	CCCn1cc(-c2cc3c(-c4cccc(N5CCNCC5)n4)n[nH]c3cn2)cn1 [Example 375, 3-(6-(piperazin-1-yl)pyridin-2-yl)-5-(1-propyl-1H-pyrazol-4-yl)-1H-pyrazolo[3,4-c]pyridine]
0.796 nM	Fc1ccc(-c2cc3c(-c4cccc(N5CCNCC5)n4)n[nH]c3cn2)cn1 [Example 378, 5-(6-fluoropyridin-3-yl)-3-(6-(piperazin-1-yl)pyridin-2-yl)-1H-pyrazolo[3,4-c]pyridine]
1.29 nM	CC(C)(CN)Cn1cc(-c2n[nH]c3cnc(-c4cccnc4)cc23)ccc1=O [Example 379, 1-(3-amino-2,2-dimethylpropyl)-5-(5-(pyridin-3-yl)-1H-pyrazolo[3,4-c]pyridin-3-yl)pyridin-2(1H)-one]

SMILES	Ki
[O-][n+]1cc(C(F)(F)F)ccc1-c1n[nH]c2cnc(-c3cccnc3)cc12 [Example 354]	97.9 nM
